Data on one substance can be found in article PMC9181887, “In Vitro Antithrombotic, Hematological Toxicity, and Inhibitor Studies of Protocatechuic, Isovanillic, and p-Hydroxybenzoic Acids from Maclura tricuspidata (Carr.) Bur” (Molecules, 2022).

This test deals with human platelet-poor plasma. Description: Recalcification time assay. Type of test: biochemical. On the procedure:
Figure 5 Effect of PA (A), IVA (B), and 4-HA (C) on recalcification time and plasma density. Human platelet-poor plasma was mixed with PA, IVA, and 4-HA dissolved in DMSO in 96-well plates and incubated for 10 min at 37 °C. Thereafter, 100 mM pre-warmed CaCl2 was added to the mixture and absorbance was taken every 60 s at 650 nm for 30 min in a microplate reader. The plasma density was presented as the optical density at 650 nm after 30 min. The half time (s) was presented as reaching a half-maximum absorbance value. NC1, plasma only; NC2, plasma treated with CaCl2; PC, positive control group (1 U heparin); PA1–20, 1–20 μg of PA treated; IVA1–20, 1–20 μg of IVA treated; 4-HA1–20, 1–20 μg of 4-HA treated.
Recalcification time was measured in a 96-well plate, according to a previously described method, with slight modifications. First, 50 μL of human platelet-poor plasma was mixed with 50 μL of the compounds, vehicle as NC2, or 1 U heparin as PC, and incubated at 37 °C for 10 min. Thereafter, 100 mM pre-warmed CaCl2 was added to the mixture and absorbance was measured at 650 nm every 1 min for 30 min using a microplate reader. The plasma density was presented as the absorbance at 650 nm after 30 min. The half time was presented as reaching a half-maximum absorbance value.

heparin [reference compound]: where the note is “1U”, the “plasma coagulation for 1800 s” value is recorded as “completely delayed”. The “Absorbance after Reaction” value (1 U heparin, 650 nm after 30 min, NC2 0.2094 ± 0.0305) was 0.0184 ± 0.0016.
